Numbers after ± are expanded uncertainties.
Experiment: mn = molality of the nth substance listed, in mol/kg
Conditions: 101 kPa, Liquid; for mass density: Pycnometric method; for electrical conductivity / speed of sound / viscosity: 313.15 K; for electrical conductivity: Frequency=0.001 MHz, Alternating current cell with electrodes; for speed of sound: Frequency=2 MHz

## O=[N+]([O-])[O-].O=[N+]([O-])[O-].[Mg+2] [magnesium nitrate] + CO
308.75 K, m1 = 0.4555
  mass density: 824.82 ± 16 kg/m3
308.75 K, m1 = 1.004
  mass density: 877.82 ± 43 kg/m3
308.85 K, m1 = 1.492
  mass density: 927.12 ± 45 kg/m3
309.1 K, m1 = 0.0082
  mass density: 775.87 ± 0.89 kg/m3
309.4 K, m1 = 0.1047
  mass density: 789.92 ± 6.4 kg/m3
309.75 K, m1 = 0.0545
  mass density: 782.89 ± 2.5 kg/m3
309.75 K, m1 = 0.881
  mass density: 863.28 ± 35 kg/m3
309.9 K, m1 = 0.2776
  mass density: 806.88 ± 12 kg/m3
309.95 K, m1 = 1.259
  mass density: 904.15 ± 48 kg/m3
310.1 K, m1 = 0.782
  mass density: 861.14 ± 32 kg/m3
310.2 K, m1 = 0.0667
  mass density: 784.14 ± 3 kg/m3
310.3 K, m1 = 1.71
  mass density: 944.04 ± 61 kg/m3
310.4 K, m1 = 0.4024
  mass density: 818.47 ± 15 kg/m3
310.45 K, m1 = 0.6276
  mass density: 841.27 ± 24 kg/m3
310.65 K, m1 = 0.4555
  mass density: 823.17 ± 19 kg/m3
310.7 K, m1 = 1.004
  mass density: 876 ± 28 kg/m3
311.55 K, m1 = 1.875
  mass density: 953.58 ± 57 kg/m3
311.6 K, m1 = 0.0082
  mass density: 773.44 ± 0.91 kg/m3
311.7 K, m1 = 0.0667
  mass density: 782.46 ± 4.3 kg/m3
311.9 K, m1 = 0.881
  mass density: 861.58 ± 35 kg/m3
311.9 K, m1 = 1.259
  mass density: 902.37 ± 52 kg/m3
312 K, m1 = 0.1047
  mass density: 787.42 ± 6.2 kg/m3
312 K, m1 = 1.492
  mass density: 924.32 ± 56 kg/m3
312.1 K, m1 = 0.4024
  mass density: 816.76 ± 14 kg/m3
312.2 K, m1 = 0.4555
  mass density: 821.41 ± 19 kg/m3
312.25 K, m1 = 0.6276
  mass density: 839.48 ± 26 kg/m3
312.3 K, m1 = 0.0545
  mass density: 780.41 ± 3 kg/m3
312.45 K, m1 = 1.71
  mass density: 942.18 ± 57 kg/m3
312.5 K, m1 = 0.2776
  mass density: 804.41 ± 12 kg/m3
312.85 K, m1 = 0.782
  mass density: 858.54 ± 40 kg/m3
m1 = 0.0082
  electrical conductivity: 0.1573 ± 0.0001 S/m
  speed of sound: 1059.8 ± 6.3 m/s
  viscosity: 0.4543 ± 0.026 mPa·s
m1 = 0.0545
  electrical conductivity: 0.4382 ± 0.0001 S/m
  speed of sound: 1066.6 ± 6.3 m/s
  viscosity: 0.483 ± 0.027 mPa·s
m1 = 0.0667
  electrical conductivity: 0.4799 ± 0.0001 S/m
  speed of sound: 1067.2 ± 6.3 m/s
  viscosity: 0.4662 ± 0.026 mPa·s
m1 = 0.1047
  electrical conductivity: 0.6326 ± 0.0001 S/m
  speed of sound: 1072.3 ± 6.3 m/s
  viscosity: 0.5128 ± 0.028 mPa·s
m1 = 0.2776
  electrical conductivity: 1.215 ± 0.001 S/m
  speed of sound: 1090.3 ± 6.4 m/s
  viscosity: 0.5885 ± 0.032 mPa·s
m1 = 0.4024
  electrical conductivity: 1.537 ± 0.001 S/m
  speed of sound: 1099.9 ± 6.4 m/s
  viscosity: 0.6799 ± 0.036 mPa·s
m1 = 0.4555
  electrical conductivity: 1.625 ± 0.001 S/m
  speed of sound: 1105.5 ± 6.5 m/s
  viscosity: 0.7062 ± 0.037 mPa·s
m1 = 0.6276
  electrical conductivity: 1.951 ± 0.001 S/m
  speed of sound: 1123.8 ± 6.5 m/s
  viscosity: 0.8707 ± 0.044 mPa·s
m1 = 0.782
  electrical conductivity: 2.183 ± 0.001 S/m
  speed of sound: 1140.7 ± 6.6 m/s
  viscosity: 0.9902 ± 0.049 mPa·s
m1 = 0.881
  electrical conductivity: 2.262 ± 0.001 S/m
  speed of sound: 1147.3 ± 6.6 m/s
  viscosity: 0.9936 ± 0.049 mPa·s
m1 = 0.9116
  electrical conductivity: 2.287 ± 0.001 S/m
  speed of sound: 1150.2 ± 6.6 m/s
  viscosity: 1.038 ± 0.051 mPa·s
m1 = 1.004
  electrical conductivity: 2.39 ± 0.001 S/m
  speed of sound: 1164.5 ± 6.7 m/s
m1 = 1.259
  electrical conductivity: 2.502 ± 0.001 S/m
  speed of sound: 1183.5 ± 6.8 m/s
m1 = 1.492
  electrical conductivity: 2.545 ± 0.001 S/m
  speed of sound: 1210.2 ± 6.9 m/s
m1 = 1.71
  electrical conductivity: 2.587 ± 0.001 S/m
  speed of sound: 1231.4 ± 7 m/s
m1 = 1.875
  electrical conductivity: 2.567 ± 0.001 S/m
  speed of sound: 1240.4 ± 7 m/s

Reference: the NIST ThermoML archive (doi:10.1021/je800463k)
